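Compound exposure: 48 hours, 5 concentrations, 96-well plates. At the TGI there is no net growth.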
What was measured:
Experiment in all cases: NCI-60 cell line screen, 48 h
COLO 205 colon = test system: COLO 205 colon
HOP-62 NSCLC = test system: HOP-62 NSCLC
OVCAR-4 ovarian = test system: OVCAR-4 ovarian
RXF 393 renal = test system: RXF 393 renal
SW-620 colon = test system: SW-620 colon
NCI-H522 lung = test system: NCI-H522 lung
OVCAR-5 ovarian = test system: OVCAR-5 ovarian
HL-60(TB) leukemia = test system: HL-60(TB) leukemia
SF-268 CNS = test system: SF-268 CNS
SK-OV-3 ovarian = test system: SK-OV-3 ovarian
PC-3 prostate = test system: PC-3 prostate
A498 renal = test system: A498 renal
NCI-H226 lung = test system: NCI-H226 lung
NCI-H23 lung = test system: NCI-H23 lung
SNB-75 CNS = test system: SNB-75 CNS
MALME-3M melanoma = test system: MALME-3M melanoma
ACHN renal = test system: ACHN renal
UO-31 renal = test system: UO-31 renal
HOP-92 NSCLC = test system: HOP-92 NSCLC
U251 CNS = test system: U251 CNS
SF-539 CNS = test system: SF-539 CNS
SK-MEL-5 melanoma = test system: SK-MEL-5 melanoma
MCF7 breast = test system: MCF7 breast
HT29 colon = test system: HT29 colon
SF-295 CNS = test system: SF-295 CNS
SN12C renal = test system: SN12C renal
786-0 renal = test system: 786-0 renal
HCT-116 colon = test system: HCT-116 colon
MDA-N = test system: MDA-N
M14 melanoma = test system: M14 melanoma
UACC-257 melanoma = test system: UACC-257 melanoma
SK-MEL-2 melanoma = test system: SK-MEL-2 melanoma
HCC-2998 colon = test system: HCC-2998 colon
HCT-15 colon = test system: HCT-15 colon
A549 NSCLC = test system: A549 NSCLC
RPMI-8226 leukemia = test system: RPMI-8226 leukemia
MDA-MB-231 breast = test system: MDA-MB-231 breast
KM12 colon = test system: KM12 colon
CCRF-CEM leukemia = test system: CCRF-CEM leukemia
HS 578T breast = test system: HS 578T breast
T-47D breast = test system: T-47D breast
DU-145 prostate = test system: DU-145 prostate
MOLT-4 leukemia = test system: MOLT-4 leukemia
IGROV1 ovarian = test system: IGROV1 ovarian
OVCAR-3 ovarian = test system: OVCAR-3 ovarian
NCI-H460 lung = test system: NCI-H460 lung
LOX IMVI melanoma = test system: LOX IMVI melanoma
SK-MEL-28 melanoma = test system: SK-MEL-28 melanoma
K-562 leukemia = test system: K-562 leukemia
EKVX NSCLC = test system: EKVX NSCLC
UACC-62 melanoma = test system: UACC-62 melanoma
MDA-MB-435 = test system: MDA-MB-435
TK-10 renal = test system: TK-10 renal
SNB-19 CNS = test system: SNB-19 CNS
CAKI-1 renal = test system: CAKI-1 renal
OVCAR-8 ovarian = test system: OVCAR-8 ovarian

Measured: TGI

C=C(CN(C)C)C1(c2ccccc2)CC2(CCCC2)C(=O)O1 (stereo unspecified)
56.1 µM: HOP-92 NSCLC
74.7 µM: COLO 205 colon | HT29 colon
53.4 µM: CCRF-CEM leukemia
53.8 µM: HL-60(TB) leukemia
82.4 µM: NCI-H23 lung
62.9 µM: UO-31 renal
78.1 µM: MOLT-4 leukemia
47.5 µM: NCI-H522 lung
> 100 µM: all other assays above

Source: PubChem BioAssay (NCI)
